The IC50 is the concentration at which inhibition is half-maximal. For orientation: AC50 means the concentration giving half of the maximal activity seen. Low values mean activity at low concentration, high ones activity only at high concentration.

The structures appear in SMILES notation. The source made the active and inactive calls. The calls are words filed in the database; no cut-off is given here.

What all share (assay type): functional, cell-based
In assay [1] the test system is HL-60. Description: Antiproliferative activity against human HL60 cells.
The subject of assay [2] is HL-60. Description: Apoptosis inducing activity in human HL60 cells.
The subject of assay [3] is HL-60. Description: Induction of partial block of S phase in HL60 cells. The following applies: Homo sapiens.
Assay [4] concerns HL-60. Briefly: Induction of apoptotic sub-G0/G1 phase in HL60 cells. The following applies: Homo sapiens.
The test system of assay [5] is HL-60. Description: Decrease of HL60 cells at G0/G1 phase. The note with it: Homo sapiens.
For assay [6], the system named is HL-60. Briefly: Decrease of HL60 cells at S phase. The following applies: Homo sapiens.
Assay [7] deals with HL-60. Briefly: Decrease of HL60 cells at G2/M phase. The following applies: Homo sapiens.

In the case of `Cc1ccc(/C=C/c2ccc(O)cc2)cc1C`, half-maximal inhibition with HL-60 [1] (IC50) was put at 3.5 µM. Besides, the activity with HL-60 [2] was half-maximal at 6 µM (AC50).

For the compound `COc1cc(/C=C\c2cc(OC)c(OC)c(OC)c2)cc(OC)c1`, in the assay on HL-60 [1], it took 1.8 µM to reach half-maximal inhibition (IC50). Besides, the AC50 in the assay on HL-60 [2] was 2.6 µM. The outcome in the assay on HL-60 [3] and in the assay with HL-60 [4] was Active.

`COc1ccc(/C=C\c2cc(OC)cc(OC)c2)cc1` [8Z-3,4',5-TRIMETHOXYSTILBENE] returned an IC50 in the assay with HL-60 [1] of 0.15 µM. This compound also gave an AC50 in the assay on HL-60 [2] of 0.24 µM. Further, the outcome in the assay with HL-60 [4], in the assay on HL-60 [5], in the assay with HL-60 [6] and in the assay on HL-60 [7] was Active.

In the case of `O=[N+]([O-])c1ccc(/C=C/c2ccc(O)cc2)cc1`, the IC50 in the assay on HL-60 [1] came out at 2.5 µM. Also, the AC50 in the assay on HL-60 [2] amounted to 4.8 µM. In addition, the result in the assay with HL-60 [3] and in the assay with HL-60 [4] was Active.

In the assay with HL-60 [1], `COc1cccc(/C=C\c2cc(OC)cc(OC)c2)c1` displayed an IC50 of 2.8 µM. The compound further registered an AC50 in the assay with HL-60 [2] of 5.4 µM.

As to `COc1cc(/C=C/c2cc(OC)c(OC)c(OC)c2)cc(OC)c1`, inhibition in the assay on HL-60 [1] was half-maximal at 22 µM (IC50). In the assay with HL-60 [2], this compound registered an AC50 of 42 µM.

For the compound `COc1cccc(/C=C/c2cc(OC)cc(OC)c2)c1`, the IC50 in the assay with HL-60 [1] is 37 µM. Also, half-maximal activity in the assay with HL-60 [2] (AC50) was put at 70 µM.

On to `COc1ccc(/C=C/c2cc(OC)cc(OC)c2)cc1`, for which the result in the assay with HL-60 [3] and with HL-60 [4] was Active.

Source of the values: ChEMBL document CHEMBL1147815, “Stilbene-based anticancer agents: resveratrol analogues active toward HL60 leukemic cells with a non-specific phase mechanism” (Bioorg Med Chem Lett, 2006).
